Test results from US4045298A, “Antibiotic XK-62-2 and process for production thereof” (priority 1972, dated 1977).
Values after ≈ are worked out from the molar mass of the structure shown.

Experiments:
[1] = test system: Bacillus cereus ATCC 9634; test: Antibacterial spectra by agar dilution method; type: cell-based; details: ATCC9634, Table 5, read-out: Minimum inhibitory concentration
Description: (§1) Antibacterial spectra of XK-62-2 by agar

[2] = test system: Bacillus cereus var. myccides ATCC 9463; test: Antibacterial spectra by agar dilution method; type: cell-based; details: ATCC9463, Table 5, read-out: Minimum inhibitory concentration
Description: as §1

[3] = test system: Bacillus subtilis No. 10707; test: Antibacterial spectra by agar dilution method; type: cell-based; details: Table 5, read-out: Minimum inhibitory concentration
Description: as §1

Escherichia coli ATCC 26 = test: Antibacterial spectra by agar dilution method; type: cell-based; details: ATCC26, Table 5, read-out: Minimum inhibitory concentration
Description: as §1

Escherichia coli KY 8302 = test: Antibacterial spectra by agar dilution method; type: cell-based; details: KY8302, resistant to chloramphenicol, streptomycin, kanamycin, paromomycin, tetracycline and spectinomycin, read-out: Minimum inhibitory concentration
Description: as §1

Escherichia coli KY 8310 = test: Antibacterial spectra by agar dilution method; type: cell-based; details: KY8310, resistant to chloramphenicol, streptomycin, kanamycin, gentamicin, kanendomycin, paromomycin, tetracycline and spectinomycin, read-out: Minimum inhibitory concentration
Description: as §1

Escherichia coli KY 8315 = test: Antibacterial spectra by agar dilution method; type: cell-based; details: KY8315, resistant to streptomycin, kanamycin, paromomycin and neomycin, read-out: Minimum inhibitory concentration
Description: as §1

[4] = test system: Klebsiella pneumoniae ATCC 10031; test: Antibacterial spectra by agar dilution method; type: cell-based; details: ATCC10031, Table 5, read-out: Minimum inhibitory concentration
Description: as §1

[5] = test system: Pseudomonas aeruginosa BMH No. 1; test: Antibacterial spectra by agar dilution method; type: cell-based; details: BMHNO.1, Table 5, read-out: Minimum inhibitory concentration
Description: as §1

[6] = test system: Salmonella typhosa ATCC 9992; test: Antibacterial spectra by agar dilution method; type: cell-based; details: Salmonella enterica, read-out: Minimum inhibitory concentration
Description: as §1

[7] = test system: Shigella sonnei ATCC 9290; test: Antibacterial spectra by agar dilution method; type: cell-based; details: ATCC9290, Table 5, read-out: Minimum inhibitory concentration
Description: as §1

[8] = test system: Staphylococcus aureus ATCC 6538P; test: Antibacterial spectra by agar dilution method; type: cell-based; details: ATCC6538P, Table 5, read-out: Minimum inhibitory concentration
Description: as §1

[9] = test system: Staphylococcus aureus KY 8942; test: Antibacterial spectra by agar dilution method; type: cell-based; details: KY8942, resistant to kanamycin, paromomycin and streptomycin, read-out: Minimum inhibitory concentration
Description: as §1

[10] = test system: Staphylococcus aureus KY 8953; test: Antibacterial spectra by agar dilution method; type: cell-based; details: KY8953, resistant to streptomycin, kanamycin, paromomycin, tetracycline, neomycin, kanendomycin and erythromycin, read-out: Minimum inhibitory concentration
Description: as §1

[11] = test system: Staphylococcus aureus KY 8956; test: Antibacterial spectra by agar dilution method; type: cell-based; details: KY8956, resistant to streptomycin, paromomycin, tetracycline, erythromycin and oleandomycin, read-out: Minimum inhibitory concentration
Description: as §1

[12] = test system: Staphylococcus aureus KY 8957; test: Antibacterial spectra by agar dilution method; type: cell-based; details: KY8957, resistant to chloramphenicol, streptomycin, kanendomycin, tetracycline and paromomycin, read-out: Minimum inhibitory concentration
Description: as §1

[13] = test system: Streptococcus faecalis ATCC 10541; test: Antibacterial spectra by agar dilution method; type: cell-based; details: Enterococcus faecalis, ATCC10541, Table 5, read-out: Minimum inhibitory concentration
Description: as §1

[14] = test system: Proteus mirabilis Finland 9; test: Minimum inhibitory concentration by agar dilution method; type: cell-based; details: FINLAND9, agar dilution, Table 6, read-out: Minimum inhibitory concentration
Description: (§2) The comparative in vitro activities of these antibiotics against various microorganisms of the genus Proteus are shown in the following Table 6.
(§3) Minimum inhibitory concentration
(§4) (γ/ml : by agar dilution method)

Proteus mirabilis No. 39 = test: as above; type: cell-based; details: NO.39, agar dilution, Table 6, read-out: Minimum inhibitory concentration
Description: as §2, §3, §4

[15] = test system: Proteus mirabilis No. 825; test: as above; type: cell-based; details: NO.825, agar dilution, Table 6, read-out: Minimum inhibitory concentration
Description: as §2, §3, §4

Proteus morganii Jenkins = test: as above; type: cell-based; details: Morganella morganii; agar dilution; Table 6; read-out: Minimum inhibitory concentration
Description: as §2, §3, §4

Proteus rettgeri Booth = test: as above; type: cell-based; details: Providencia rettgeri; agar dilution; Table 6; read-out: Minimum inhibitory concentration
Description: as §2, §3, §4

[16] = test system: Proteus rettgeri Hambrook; test: as above; type: cell-based; details: Providencia rettgeri; agar dilution; Table 6; read-out: Minimum inhibitory concentration
Description: as §2, §3, §4

[17] = test system: Proteus vulgaris Abbott JJ; test: as above; type: cell-based; details: agar dilution, Table 6, read-out: Minimum inhibitory concentration
Description: as §2, §3, §4

Proteus vulgaris KY 4296 = test: as above; type: cell-based; details: KY4296, Table 6
Description: as §2, §3, §4

Proteus vulgaris KY 4297 = test: as above; type: cell-based; details: KY4297, Table 6
Description: as §2, §3, §4

[18] = test system: Pseudomonas aeruginosa BMH No. 1; test: In vivo protection of mice against bacterial infection; details: subcutaneous, inoculum 3.8×10^8 cells/mouse intraperitoneal
Protocol: In addition, the in vivo activity of XK-62-2 against pathogenic bacterial infections in mice is tested. The mice are infected with an inoculum of 3.8× 10^8 cells/mouse of Pseudomonas aeruginosa BMH No. 1 or 6.6× 10^7 cells/mouse of Pseudomonas aeruginosa KY 8510 by intraperitoneal injection. They are then treated with various doses of the test antibiotic by subcutaneous injection. The effect of XK-62-2 on the protection of the bacterial infections is shown in the following Table 8 wherein ten mice are used in each test.

Solubility = type: physicochemical
[19] = test system: Gram-positive and Gram-negative bacteria; test: Antibacterial activity against Gram-positive and Gram-negative bacteria (summary); type: cell-based
[20] = test system: specific enzyme system which inactivates gentamicin C1a or kanamycin by acetylating; type: biochemical, Pseudomonas aeruginosa

With `CNC[C@@H]1CC[C@@H](N)[C@@H](O[C@H]2[C@H](O)[C@@H](O[C@H]3OC[C@](C)(O)[C@H](NC)[C@H]3O)[C@H](N)C[C@@H]2N)O1` [XK-62-2] the MIC [1] was 0.016 µg/mL (≈ 0.0345 µM), the MIC [2] was 0.0082 µg/mL (≈ 0.0177 µM) and the MIC [3] was less than 0.004 µg/mL. For the same molecule, the MIC (Escherichia coli ATCC 26) was 0.0082 µg/mL (≈ 0.0177 µM), the MIC (Escherichia coli KY 8302) was 0.033 µg/mL (≈ 0.0712 µM) and the MIC (Escherichia coli KY 8310) was 1.05 µg/mL (≈ 2.27 µM). It also gave an MIC (Escherichia coli KY 8315) of 0.016 µg/mL (≈ 0.0345 µM), an MIC [4] of 0.0082 µg/mL (≈ 0.0177 µM) and an MIC [5] of 0.53 µg/mL (≈ 1.14 µM). The MIC [6] was 0.018 µg/mL (≈ 0.0388 µM), the MIC [7] was 0.07 µg/mL (≈ 0.151 µM) and the MIC [8] was less than 0.0041 µg/mL. The MIC [9] was 0.065 µg/mL (≈ 0.14 µM), the MIC [10] was 0.0041 µg/mL (≈ 0.00884 µM) and the MIC [11] was less than 0.001 µg/mL. It also gave an MIC [12] of 0.0021 µg/mL (≈ 0.00453 µM), an MIC [13] of 1.05 µg/mL (≈ 2.27 µM) and an MIC [14] of 0.04 µg/mL (≈ 0.0863 µM). The MIC (Proteus mirabilis No. 39) was 0.021 µg/mL (≈ 0.0453 µM), the MIC [15] was 0.021 µg/mL (≈ 0.0453 µM) and the MIC (Proteus morganii Jenkins) was 0.04 µg/mL (≈ 0.0863 µM). It also gave an MIC (Proteus rettgeri Booth) of 0.021 µg/mL (≈ 0.0453 µM), an MIC [16] of 0.021 µg/mL (≈ 0.0453 µM) and an MIC [17] of 0.021 µg/mL (≈ 0.0453 µM). For the same molecule, the MIC (Proteus vulgaris KY 4296) was 0.021 µg/mL (≈ 0.0453 µM), the MIC (Proteus vulgaris KY 4297) was 0.021 µg/mL (≈ 0.0453 µM) and the Survival of mice ([18]; 0.125 mg/mouse) was 0%. It also gave a Survival of mice ([18]; 0.25 mg/mouse) of 10%, a Survival of mice ([18]; 0.5 mg/mouse) of 50% and a Survival of mice ([18]; 1 mg/mouse) of 90%. The Survival of mice ([18]; 2 mg/mouse) was 100%, the Solubility in acetone (Solubility; acetone) was “soluble” and the “Solubility in chloroform, benzene, ethyl acetate, butyl acetate, ether, butanol, petroleum ether, n-hexane” value (Solubility; chloroform, benzene, ethyl acetate, butyl acetate, ether, butanol, petroleum ether, n-hexane, etc.) was “insoluble”. For the same molecule, the Solubility in ethanol (Solubility; ethanol) was “soluble”, the Solubility in methanol (Solubility; methanol) was “soluble” and the “Solubility in ordinary organic solvents” value (Solubility; ordinary organic solvents) was “poorly soluble”. For the same molecule, the Solubility in water (Solubility; water) was “very soluble”, the Antibacterial activity ([19]; both in vitro and in vivo, broad range of Gram-positive and Gram-negative bacteria) was “very strong antibacterial activity” and the “In vitro activity relative to gentamicin” value ([19]; in vitro, vs gentamicin) was “comparable”. The “In vitro activity relative to streptomycin and kanamycin” value ([19]; in vitro, vs streptomycin and kanamycin) was “far superior” and the “Inactivation by acetylation (6'-NH2)” value [20] was “free from acetylation”.
